Assay results published in patent US9901525B2, “External use skin composition, containing Lentinula edodes-derived ergosterol” (Amorepacific Corporation, priority 2013, dated 2018).

Experiments:
Melan-a cell [1] = test: Melanin analysis of melan-a cell (melanin content); type: cell-based, mouse; settings: melan-a cells (FIG. 3); for effect inhibiting the melanin production: 10 μM, corresponds to 4.44 ppm; for effect of inhibiting melanin production: 0.1, 1, 10 μM, 6 days; for skin whitening effect compared with positive controls (50 ppm arbutin, 50 ppm kojic acid): much less amount than the controls
Description: (§1) Melanin-forming cell (melanocyte) derived from C57BL/6J mouse, melan-a cell was cultured by using RPMI-1640 medium (Lonza, USA) with 10% FBS (Fetal Bovine Serum; bovine fetal serum) and 50 U/ml penicillin, 50 μg/ml streptomycin under the condition of 37° C., 10% CO2 and then used in the following experiment.
The Melan-a cell cultured by the method of the Reference Example 2 was seeded on 48 well plate so as to be 1.5×10^4 of the cell number per well and then, cultured for 24 hours. Then, a new medium containing various concentrations (0.1, 1, 10 μM) of 3β, 5α-dihydroxy-6β-methoxy-(22E, 24R)-ergosta-7,22-diene or 3β, 5α, 9α-trihydroxy-(22E, 24R)-ergosta-7,22-diene-6-one isolated from the Reference Example 1 was treated. At this time, in order to compare it, a medium containing 50 ppm of arbutin or 50 ppm of kojic acid was used as a positive control. The medium was treated for 6 days, and after three days, a new medium was exchanged. After 6 days, the cell was washed with DPBS and then, was added with 2N NaOH (10% DMSO) and dissolved at 60° C. for 1 hour. The cell lysate dissolved was moved into 96 well plates and then its absorbance (OD 475) was measured. The measured value was calculated as melanin content from the standard curve for the synthesized melanin, and the melanin content calculated was standardized by the total amount of the protein of each experimental group, and then it was compared with the control to estimate the efficiency. The results are represented in FIG. 3.
In addition, in order to compare the whitening effect of 3β, 5α-dihydroxy-6β-methoxy-(22E, 24R)-ergosta-7,22-diene and 3β, 5α, 9α-trihydroxy-(22E, 24R)-ergosta-7,22-diene-6-one with that of Lentinula edodes extract, the separate melan-a cell melanin assay experiment was performed with the same method as the above. At this time, 50 ppm of arbutin or 12.5, 25, 50, 100 ppm of ethanol extracts of Lentinula edodes obtained from the Reference Example 1 were used, and used by containing them in the medium for the cell culture. The results were represented in FIG. 4.

Melan-a cell [2] = test: Cytotoxic test (MTT assay), survival rate of cells; type: cell-based, mouse; settings: 50 ppm, melan-a cells (FIG. 2)
Description: as §1
Melan-a cell cultured by the method of the Reference Example 2 was seeded on 96 well plates so as to be 1.0×10^4 of cell number and then, cultured for 24 hours. […] Absorbance (OD 570) was determined by using microplate reader (Product Name: Synergy 2 (BioTek)), and a survival rate of the cell was determined by comparing it with the control. […]
The method similar to the Experimental Example 1 was used, except that 50 ppm arbutin, Lentinula edodes extracts (12.5, 25, 50, 100 ppm) were used as the sample treated. Absorbance (OD 570) was measured by using microplate reader (Product Name: Synergy 2 (BioTek)), and a survival rate of the cell was determined by comparing it with the control. […]

SMILES	effect inhibiting the melanin production (Melan-a cell [1])	effect of inhibiting melanin production (Melan-a cell [1])	skin whitening effect compared with positive controls (50 ppm arbutin, 50 ppm kojic acid) (Melan-a cell [1])	effect on the cell growth (survival rate, MTT) (Melan-a cell [2])
CC(C)[C@@H](C)/C=C/[C@@H](C)[C@H]1CC[C@H]2C3=CC(=O)[C@@]4(O)C[C@@H](O)CC[C@]4(C)[C@@]3(O)CC[C@]12C [3β, 5α, 9α-trihydroxy-(22E, 24R)-ergosta-7,22-diene-6-one]	remarkable effect inhibiting the melanin production	exhibits the effect of inhibiting a melanin production	remarkably excellent skin whitening effect than albumin and kojic acid	
CO[C@@H]1C=C2[C@@H]3CC[C@H]([C@H](C)/C=C/[C@H](C)C(C)C)[C@@]3(C)CC[C@@H]2[C@@]2(C)CC[C@H](O)C[C@]12O [3β, 5α-dihydroxy-6β-methoxy-(22E, 24R)-ergosta-7,22-diene]	remarkable effect inhibiting the melanin production	exhibits the effect of inhibiting a melanin production	remarkably excellent skin whitening effect than albumin and kojic acid	
OC[C@H]1O[C@@H](Oc2ccc(O)cc2)[C@H](O)[C@@H](O)[C@@H]1O [arbutin]				did not affect the cell growth
